The supplement of paper PMC10307832

Legend:
Assay in all cases: relative viability (nuclei count vs DMSO), 5 days (fraction); higher = more cells survive
NCI-H2228 = system: NCI-H2228
Outline: (§1)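 Medians of duplicate plates are given as relative viability. That measure is the nuclei count in treated wells divided by the count in vehicle wells. Counts were taken on 4× images of lung cancer cell lines in 1536-well plates, 5 days after pin-tool dosing the day after seeding with one drug alone or a fixed anchor-drug dose plus five library-drug doses (not always all listed) in √10 steps.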

NCI-H23 = system: NCI-H23
Outline: as §1

LK-2 = system: LK-2
Outline: as §1

PC-14 = system: PC-14
Outline: as §1

HCC-44 = system: HCC-44
Outline: as §1

PC-3 [JPC-3] = system: PC-3 [JPC-3]
Outline: as §1

SW 900 = system: SW 900
Outline: as §1

NCI-H596 = system: NCI-H596
Outline: as §1

NCI-H2347 = system: NCI-H2347
Outline: as §1

SW 1573 = system: SW 1573
Outline: as §1

LCLC-103H = system: LCLC-103H
Outline: as §1

NCI-H460 = system: NCI-H460
Outline: as §1

A-427 = system: A-427
Outline: as §1

COR-L23 = system: COR-L23
Outline: as §1

NCI-H1650 = system: NCI-H1650
Outline: as §1

NCI-H727 = system: NCI-H727
Outline: as §1

H3255 = system: H3255
Outline: as §1

NCI-H1793 = system: NCI-H1793
Outline: as §1

201T = system: 201T
Outline: as §1

LU99A = system: LU99A
Outline: as §1

LC-2-ad = system: LC-2-ad
Outline: as §1

LCLC-97TM1 = system: LCLC-97TM1
Outline: as §1

**Q.** `CCN(CC)CCCCNc1ncc2cc(-c3cc(OC)cc(OC)c3)c(NC(=O)NC(C)(C)C)nc2n1` + O=C(c1cc(Cc2n[nH]c(=O)c3ccccc23)ccc1F)N1CCN(C(=O)C2CC2)CC1 [Olaparib] (partner 8 µM) was tested. Which relative viability (NCI-H2228; first compound 0.01 µM) did it give?
**A.** 0.799

**Q.** What about the relative viability (NCI-H2228; first compound 0.03162 µM) of the same compound?
**A.** 0.8

**Q.** And the relative viability (NCI-H2228; first compound 0.1 µM)?
**A.** 0.824

**Q.** And the relative viability (NCI-H2228; first compound 0.3162 µM)?
**A.** 0.547

**Q.** What about the relative viability (NCI-H2228; first compound 1 µM) of the same compound?
**A.** 0.571

**Q.** What about the relative viability (NCI-H23; first compound 0.01 µM) of the same compound?
**A.** 0.306

**Q.** And the relative viability (NCI-H23; first compound 0.03162 µM)?
**A.** 0.226

**Q.** What about the relative viability (NCI-H23; first compound 0.1 µM) of the same compound?
**A.** 0.375

**Q.** And the relative viability (NCI-H23; first compound 0.3162 µM)?
**A.** 0.362

**Q.** And the relative viability (NCI-H23; first compound 1 µM)?
**A.** 0.332

**Q.** What about the relative viability (LK-2; first compound 0.01 µM) of the same compound?
**A.** 0.634

**Q.** And the relative viability (LK-2; first compound 0.03162 µM)?
**A.** 0.547

**Q.** What about the relative viability (LK-2; first compound 0.1 µM) of the same compound?
**A.** 0.714

**Q.** What about the relative viability (LK-2; first compound 0.3162 µM) of the same compound?
**A.** 0.457

**Q.** What about the relative viability (LK-2; first compound 1 µM) of the same compound?
**A.** 0.226

**Q.** What about the relative viability (PC-14; first compound 0.01 µM) of the same compound?
**A.** 0.318

**Q.** And the relative viability (PC-14; first compound 0.03162 µM)?
**A.** 0.341

**Q.** And the relative viability (PC-14; first compound 0.1 µM)?
**A.** 0.292

**Q.** What about the relative viability (PC-14; first compound 0.3162 µM) of the same compound?
**A.** 0.278

**Q.** And the relative viability (PC-14; first compound 1 µM)?
**A.** 0.236

**Q.** And the relative viability (HCC-44; first compound 0.01 µM)?
**A.** 1.06

**Q.** What about the relative viability (HCC-44; first compound 0.03162 µM) of the same compound?
**A.** 1.07

**Q.** And the relative viability (HCC-44; first compound 0.1 µM)?
**A.** 1.03

**Q.** What about the relative viability (HCC-44; first compound 0.3162 µM) of the same compound?
**A.** 1.01

**Q.** What about the relative viability (HCC-44; first compound 1 µM) of the same compound?
**A.** 0.942

**Q.** What about the relative viability (PC-3 [JPC-3]; first compound 0.03162 µM) of the same compound?
**A.** 1.08

**Q.** What about the relative viability (PC-3 [JPC-3]; first compound 0.1 µM) of the same compound?
**A.** 1.29

**Q.** What about the relative viability (PC-3 [JPC-3]; first compound 0.3162 µM) of the same compound?
**A.** 1.19

**Q.** And the relative viability (PC-3 [JPC-3]; first compound 1 µM)?
**A.** 1.07

**Q.** And the relative viability (SW 900; first compound 0.01 µM)?
**A.** 0.834

**Q.** And the relative viability (SW 900; first compound 0.03162 µM)?
**A.** 0.901

**Q.** What about the relative viability (SW 900; first compound 0.1 µM) of the same compound?
**A.** 0.839

**Q.** What about the relative viability (SW 900; first compound 0.3162 µM) of the same compound?
**A.** 0.793

**Q.** And the relative viability (SW 900; first compound 1 µM)?
**A.** 0.592

**Q.** And the relative viability (NCI-H596; first compound 0.01 µM)?
**A.** 0.649

**Q.** What about the relative viability (NCI-H596; first compound 0.03162 µM) of the same compound?
**A.** 0.727

**Q.** What about the relative viability (NCI-H596; first compound 0.1 µM) of the same compound?
**A.** 0.635

**Q.** What about the relative viability (NCI-H596; first compound 0.3162 µM) of the same compound?
**A.** 0.723

**Q.** And the relative viability (NCI-H596; first compound 1 µM)?
**A.** 0.563

**Q.** And the relative viability (NCI-H2347; first compound 0.01 µM)?
**A.** 0.585

**Q.** And the relative viability (NCI-H2347; first compound 0.03162 µM)?
**A.** 0.579

**Q.** And the relative viability (NCI-H2347; first compound 0.1 µM)?
**A.** 0.617

**Q.** And the relative viability (NCI-H2347; first compound 0.3162 µM)?
**A.** 0.655

**Q.** And the relative viability (NCI-H2347; first compound 1 µM)?
**A.** 0.602

**Q.** And the relative viability (SW 1573; first compound 0.01 µM)?
**A.** 0.513

**Q.** What about the relative viability (SW 1573; first compound 0.03162 µM) of the same compound?
**A.** 0.551

**Q.** And the relative viability (SW 1573; first compound 0.1 µM)?
**A.** 0.613

**Q.** And the relative viability (SW 1573; first compound 0.3162 µM)?
**A.** 0.522

**Q.** And the relative viability (SW 1573; first compound 1 µM)?
**A.** 0.421

**Q.** What about the relative viability (LCLC-103H; first compound 0.01 µM) of the same compound?
**A.** 0.813

**Q.** And the relative viability (LCLC-103H; first compound 0.03162 µM)?
**A.** 0.788

**Q.** And the relative viability (LCLC-103H; first compound 0.1 µM)?
**A.** 0.888

**Q.** What about the relative viability (LCLC-103H; first compound 0.3162 µM) of the same compound?
**A.** 0.833

**Q.** And the relative viability (LCLC-103H; first compound 1 µM)?
**A.** 0.567

**Q.** What about the relative viability (NCI-H460; first compound 0.01 µM) of the same compound?
**A.** 0.462

**Q.** What about the relative viability (NCI-H460; first compound 0.03162 µM) of the same compound?
**A.** 0.514

**Q.** And the relative viability (NCI-H460; first compound 0.1 µM)?
**A.** 0.52

**Q.** What about the relative viability (NCI-H460; first compound 0.3162 µM) of the same compound?
**A.** 0.57

**Q.** What about the relative viability (NCI-H460; first compound 1 µM) of the same compound?
**A.** 0.43

**Q.** And the relative viability (A-427; first compound 0.01 µM)?
**A.** 0.781

**Q.** And the relative viability (A-427; first compound 0.03162 µM)?
**A.** 0.746

**Q.** And the relative viability (A-427; first compound 0.1 µM)?
**A.** 0.838

**Q.** And the relative viability (A-427; first compound 0.3162 µM)?
**A.** 0.816

**Q.** And the relative viability (A-427; first compound 1 µM)?
**A.** 0.685

**Q.** And the relative viability (COR-L23; first compound 0.01 µM)?
**A.** 0.365

**Q.** What about the relative viability (COR-L23; first compound 0.03162 µM) of the same compound?
**A.** 0.378

**Q.** What about the relative viability (COR-L23; first compound 0.1 µM) of the same compound?
**A.** 0.368

**Q.** What about the relative viability (COR-L23; first compound 0.3162 µM) of the same compound?
**A.** 0.403

**Q.** And the relative viability (COR-L23; first compound 1 µM)?
**A.** 0.344

**Q.** What about the relative viability (NCI-H1650; first compound 0.01 µM) of the same compound?
**A.** 0.815

**Q.** And the relative viability (NCI-H1650; first compound 0.03162 µM)?
**A.** 0.819

**Q.** What about the relative viability (NCI-H1650; first compound 0.1 µM) of the same compound?
**A.** 0.822

**Q.** And the relative viability (NCI-H1650; first compound 0.3162 µM)?
**A.** 0.635

**Q.** What about the relative viability (NCI-H1650; first compound 1 µM) of the same compound?
**A.** 0.676

**Q.** What about the relative viability (NCI-H727; first compound 0.01 µM) of the same compound?
**A.** 0.674

**Q.** And the relative viability (NCI-H727; first compound 0.03162 µM)?
**A.** 0.504

**Q.** What about the relative viability (NCI-H727; first compound 0.1 µM) of the same compound?
**A.** 0.671

**Q.** What about the relative viability (NCI-H727; first compound 0.3162 µM) of the same compound?
**A.** 0.585

**Q.** What about the relative viability (NCI-H727; first compound 1 µM) of the same compound?
**A.** 0.741

**Q.** And the relative viability (H3255; first compound 0.01 µM)?
**A.** 0.567

**Q.** And the relative viability (H3255; first compound 0.03162 µM)?
**A.** 0.52

**Q.** And the relative viability (H3255; first compound 0.1 µM)?
**A.** 0.581

**Q.** What about the relative viability (H3255; first compound 0.3162 µM) of the same compound?
**A.** 0.575

**Q.** And the relative viability (H3255; first compound 1 µM)?
**A.** 0.558

**Q.** And the relative viability (NCI-H1793; first compound 0.01 µM)?
**A.** 0.676

**Q.** And the relative viability (NCI-H1793; first compound 0.03162 µM)?
**A.** 0.839

**Q.** What about the relative viability (NCI-H1793; first compound 0.1 µM) of the same compound?
**A.** 1.23

**Q.** And the relative viability (NCI-H1793; first compound 0.3162 µM)?
**A.** 0.926

**Q.** And the relative viability (NCI-H1793; first compound 1 µM)?
**A.** 0.54

**Q.** What about the relative viability (201T; first compound 0.01 µM) of the same compound?
**A.** 0.913

**Q.** What about the relative viability (201T; first compound 0.03162 µM) of the same compound?
**A.** 0.807

**Q.** What about the relative viability (201T; first compound 0.1 µM) of the same compound?
**A.** 0.924

**Q.** What about the relative viability (201T; first compound 0.3162 µM) of the same compound?
**A.** 0.853

**Q.** What about the relative viability (201T; first compound 1 µM) of the same compound?
**A.** 0.719

**Q.** What about the relative viability (LU99A; first compound 0.01 µM) of the same compound?
**A.** 0.249

**Q.** And the relative viability (LU99A; first compound 0.03162 µM)?
**A.** 0.288

**Q.** And the relative viability (LU99A; first compound 0.1 µM)?
**A.** 0.286

**Q.** What about the relative viability (LU99A; first compound 0.3162 µM) of the same compound?
**A.** 0.285

**Q.** And the relative viability (LU99A; first compound 1 µM)?
**A.** 0.245

**Q.** And the relative viability (LC-2-ad; first compound 0.01 µM)?
**A.** 0.776

**Q.** What about the relative viability (LC-2-ad; first compound 0.03162 µM) of the same compound?
**A.** 0.744

**Q.** And the relative viability (LC-2-ad; first compound 0.1 µM)?
**A.** 0.787

**Q.** And the relative viability (LC-2-ad; first compound 0.3162 µM)?
**A.** 0.788

**Q.** And the relative viability (LC-2-ad; first compound 1 µM)?
**A.** 0.668

**Q.** And the relative viability (LCLC-97TM1; first compound 0.01 µM)?
**A.** 0.413

**Q.** What about the relative viability (LCLC-97TM1; first compound 0.03162 µM) of the same compound?
**A.** 0.399

**Q.** What about the relative viability (LCLC-97TM1; first compound 0.1 µM) of the same compound?
**A.** 0.479

**Q.** What about the relative viability (LCLC-97TM1; first compound 0.3162 µM) of the same compound?
**A.** 0.512

**Q.** And the relative viability (LCLC-97TM1; first compound 1 µM)?
**A.** 0.222
